Literature values as cited in US20150291659A1, “SOLOMONAMIDE ANALOGUE COMPOUNDS, PHARMACEUTICALS CONTAINING SOLOMONAMIDE ANALOGUE COMPOUNDS, AND PROCESSES FOR THE PREPARATION THEREOF” (COUNCIL OF SCIENTIFIC AND INDUSTRIAL RESEARCH, priority 2012, published 2015).

System: carrageenan induced paw edema
Conditions: carrageenan induced paw edema model, animal-models, 100 μg/kg

## C[C@@H]1C(=O)NCC(=O)N[C@H](C)C(=O)Nc2cc(O)ccc2C(=O)[C@H](O)[C@@H](NC(=O)[C@@H](N)CO)[C@@H]1O [Solomonamide A]
  reduction of inflammation: ~60%
